Experimental data from US20230371508A1, “COMPOSITIONS AND METHODS FOR KILLING INSECT AND NON-INSECT PESTS” (The United States of America, as represented by the …, priority 2018, published 2023).
≈ marks a conversion by molar mass, not a printed value. Entries after “also recorded” stand apart in the source; their conditions may differ. Like-named read-outs stand apart in the source and are kept apart here.

Columns and labels:
[1] = test system: H. halys nymphs; experiment: Nymphicidal toxicity, treated filter paper in glass vial; assay type: in vivo
Procedure: Toxicities of MB, some compounds of formula 1, and commercial pesticides on H. halys nymphs: The bioassays were carried out in glass vials (20 mL), following a published procedure (Nielsen, A. L., et al., J. Econ. Entomol., 101: 1439-1442 (2008)). Filter paper was cut into round shape pieces (2.4 cm diameter). 50 μL acetone solution of one derivative or commercial pesticide with different concentrations was loaded onto the filter paper evenly, and the filter paper was dried for 1 min and then put into the bottom of vial. A small piece of green bean was put on the filter paper in the vial as food source. Different stages of H. halys nymphs were introduced into the vial and capped with a cotton ball. For each stage, 30 nymphs were used for each amount. For the nymphs of the first instar, 10 nymphs were put into 1 vial. For the nymphs of the second and third instar, 5 nymphs were put into 1 vial. For the nymphs of the fourth instar, 3 nymphs were put into 1 vial. For the nymphs of the fifth instar, 2 nymphs were put into 1 vial. The mortality was assessed after 24 hr.

[2] = test system: L. dispar larvae; experiment: Larvicidal toxicity, treated filter paper in Petri dish; assay type: in vivo; conditions: for LC50 (95% CL): 1st stage larvae, 24 hr; for larvicidal toxicity against L. dispar (in words): in vivo
Procedure: Toxicities of MB and some compounds of formula 1 on L. dispar larvae: The bioassays were carried out in plastic Petri dish loaded with filter paper, following a published procedure (Nielsen 2008). 600 μL acetone solution of one derivative with different concentrations was loaded onto the filter paper (90 mm diameter) evenly, and the filter paper was dried for 2 min and then put into the bottom of Petri dish. 10 L. dispar larvae were put onto the Petri dish and covered with a lid. 30 larvae were used for each amount. The mortality was assessed after 24 hr.

[3] = test system: D. suzukii; experiment: Insecticidal activity on larvae and pupae development and adult emergence in pre-infested blueberries (dip); assay type: in vivo, Drosophila suzukii; conditions: for insecticidal toxicity against D. suzukii (in words): 1% concentration on 4 days pre-infested blueberries, 10 days incubation; for Adults / Larvae / Pupae: pre-infested berries soaked 2 min in 1% solution, assessed after 10 days at room temperature, mean of three replicates (standard error)
Procedure: Impacts of MB and other compounds on D. suzukii control: To investigate the acute toxicity of some compounds of formula 1 against D. suzukii, a published procedure was followed (Cuthbertson, A. G. S., et al., Insects, 5: 488-498 (2014)). First, mixed-sex adults D. suzukii (100) were introduced into a plastic cage (30×30×30 cm) and reared on blueberries (100) for 4 days. After that, the infested blueberries were taken out from the cage. Half of the blueberries (50) were dipped in 100 mL aqueous emulsion of each compound listed in Table 1 at 1% concentration for 2 min as treatment, while the other half of the blueberries (50) were dipped in DI water for 2 min as blank control. Then the corresponding blueberries were separately taken out, placed in two different Petri dishes, and allowed to air dry for 2 h. Second, treatment and blank control blueberries were respectively stored in two plastic cups (32 oz) with closed caps and incubated at room temperature for 10 days. The emergence of adults was then subsequently assessed. The developments of larvae and pupae were further inspected by dissection of the treatment and blank control berries. Each treatment and blank control was repeated three times.

[4] = test system: S. invicta workers; conditions: for contact toxicity against S. invicta (in words): in vivo
Procedure: Fire ant bioassays were conducted in USDA, ARS Stoneville laboratory at 25° C., 80% R.H. with a 12:12 (L:D) photoperiod. Contact toxicities of MB and some compounds of formula 1 against fire ants: Topical application was used for contact toxicity bioassay. Only large workers were used for a purpose of relatively uniform body weight and ease of handling. For all compounds, acetone was used as a solvent. The solution was applied using a 0.779 μl capillary tube. Two experiments were conducted for assessing contact toxicity. […] In order to investigate the structure-activity relationship, LD50 values were also established for MB and EB. […] For each LD50 value, 5 doses of benzoates were used. Each dose was replicated 3 times. Each replicate consisted of 13 to 18 ants. Treated ants were placed in a 30-ml capped cup and dead ants were counted after 24 h.

[5] = test system: H. halys eggs; experiment: Ovicidal toxicity, direct spray on eggs; assay type: in vivo; conditions: eggs sprayed, 10 days
Text: Ovicidal toxicities of MB and some compounds of formula 1: The aqueous solutions of one of the compounds of formula 1 with designated concentrations with different concentrations of active ingredient (AI) were separately stored in glass spray bottles according to a published procedure (Cuthbertson 2014). The eggs (10 for H. halys and 100 for P. xylostella) were laid on filter papers in Petri dishes. Different aqueous insecticidal solutions were sprayed on the surfaces of different eggs three times (˜0.5 mL) to completely cover the treatment areas. Then the Petri dishes were covered with lids and maintained in a fume hood for 10 days. The Petri dishes were then inspected for presence of nymph/larvae development or numbers of unhatched eggs.

[6] = test system: S. invicta workers; experiment: Fumigant toxicity in sealed glass flask; assay type: in vivo, Solenopsis invicta; conditions: for LC50 / mortality at 1.43 µg/mL: Solenopsis invicta
Procedure: A 250-ml glass flask (the whole volume is 280 ml) was used to house worker ants in fumigant toxicity bioassays. Two micro-liter of acetone solution of the tested compound was applied onto a paraffin film, which was used to seal the flask with ants. The treated spot of the paraffin film faced the inside of the flask. The upper part of the flask was coated with Fluon® to prevent ants from contacting the test material. Two experiments were conducted. […] LC50 value was established using 5 dosages. Each dosage was replicated 3 times for each of 3 colonies. Each replicate consisted of 15 to 26 ants. Ants that could not stand by themselves were considered dead. Dead ants were counted after 24 h.

[7] = 24 h, read-out: mean mortality, dosage 1.43 μg/ml, 24 h

Row | Compound | LC50 (95% CL) ([1]; 2nd stage nymphs, 24 hr) | LC50 (95% CL) ([1]; 3rd stage nymphs, 24 hr) | LC50 (95% CL) [2] | insecticidal toxicity against D. suzukii (in words) [3] | Adults [3] | Larvae [3] | Pupae [3] | toxicity against H. halys nymphs (in words) ([1]; in vivo) | LC50 (95% CL) [5] | LD50 ([4]; colony 1, 24 h) [μg/ant] | LD50 ([4]; colony 2, 24 h) [μg/ant] | LD50 ([4]; colony 3, 24 h) [μg/ant] | mortality at 1.43 µg/mL [6, 7] [%] | further results
1 | C/C(=N\C#N)N(C)Cc1ccc(Cl)nc1 [AP, acetamiprid, reference compound] | 0.257 (0.169-0.340) μL/vial | 0.475 (0.301-0.641) μL/vial | 0.221 (0.167-0.291) mg/cm^2 |  |  |  |  |  |  |  |  |  |  | LC50 (95% CL) ([1]; 5th stage nymphs, 24 hr): 1.414 (1.165-1.642) μL/vial; LC50 (95% CL) ([2]; listed as acetamiprid): 0.221 mg/cm^2
2 | O=C(OCc1ccccc1)c1ccccc1 [BB, benzyl benzoate] |  |  |  | poor toxicities | 40.0(8.4) | 5.7(0.7) | 40.0(5.8) | deficient toxicities |  |  |  |  |  | LC50 (95% CL) ([1]; in vivo): 5.619 (3.028-44.599) μL/vial; larvicidal toxicity against L. dispar (in words) [2]: did not show any toxicities; contact toxicity against S. invicta (in words) [4]: potent contact toxicities
3 | CCOC(=O)c1ccccc1 [EB, ethyl benzoate] |  | 1.604 (1.468-1.756) μL/vial | 0.115 (0.107-0.123) mg/cm^2 |  | 0 | 0 | 0 |  | 0.014 (0.010-0.019) mg/cm^2 | 164.32 | 129.62 | 126.53 |  | LC50 ([6]; 24 h, colony 1, 24 h, read-out: LC50): 0.89 µg/mL (≈ 5.93 µM); LC50 ([6]; 24 h, colony 2, 24 h, read-out: LC50): 0.76 µg/mL (≈ 5.06 µM); LC50 ([6]; 24 h, colony 3, 24 h, read-out: LC50): 1.14 µg/mL (≈ 7.59 µM); mortality at 1.43 µg/mL ([6]; 24 h, dosage 1.43 μg/ml, 24 h, read-out: mean mortality): ~100%; LC50 ([6]; 24 h, mean over colonies, 24 h, read-out: mean LC50 value): 0.93 µg/mL (≈ 6.19 µM)
4 | COC(=O)c1ccccc1Cl [M2CB, methyl 2-chlorobenzoate] | 1.302 (1.137-1.610) μL/vial |  | 0.130 (0.097-0.159) mg/cm^2 |  | 0 | 0 | 0 |  | 0.011 (0.008-0.013) mg/cm^2 |  |  |  | 70 to 80 | LC50 ([6]; 24 h, colony 1, 24 h): 0.89 µg/mL (≈ 5.22 µM); LC50 ([6]; 24 h, colony 2, 24 h): 0.77 µg/mL (≈ 4.51 µM); LC50 ([6]; 24 h, colony 3, 24 h): 0.56 µg/mL (≈ 3.28 µM); mean mortality ([6]; dosage 1.43 μg/ml, 24 h): 79.4%
5 | COC(=O)c1ccccc1C [M2MB, methyl 2-methylbenzoate] | 0.974 (0.827-1.109) μL/vial |  | 0.155 (0.134-0.174) mg/cm^2 |  | 0 | 0 | 0 |  | 0.014 (0.005-0.027) mg/cm^2 |  |  |  | 70 to 80 | fumigant toxicity against S. invicta (in words) ([6]; in vivo): significantly reduced
6 | COC(=O)c1ccccc1[N+](=O)[O-] [M2NB, methyl 2-nitrobenzoate] |  |  |  |  | 0 | 0 | 0 | ineffective | 0.010 (0.002-0.019) mg/cm^2 |  |  |  | 0 | larvicidal toxicity against L. dispar (in words) [2]: did not show any toxicities
7 | CC(COc1ccc(Oc2ccccc2)cc1)Oc1ccccn1 (centres unmarked) [PF, pyriproxyfen, reference compound] |  | 1.798 (1.397-2.797) μL/vial | 0.086 (0.057-0.124) mg/cm^2 |  |  |  |  |  |  |  |  |  |  | LC50 (95% CL) ([1]; 5th stage nymphs, 24 hr): 2.700 (1.881-4.836) μL/vial; LC50 (95% CL) ([2]; listed as pyriproxyfen): 0.086 mg/cm^2
8 | CC(C)COC(=O)c1ccccc1 [iBB, iso-butyl benzoate] |  | 4.890 (2.845-24.779) μL/vial | 0.193 (0.165-0.234) mg/cm^2 | poor toxicities | 24.7(0.9) | 6.0(1.5) | 15.7(1.9) | deficient toxicities |  | 80.07 | 96.57 | 55.75 |  | 
9 | CCCCOC(=O)c1ccccc1 [nBB, n-butyl benzoate] |  |  | 0.276 (0.223-0.393) mg/cm^2 |  | 25.3(1.5) | 4.7(1.2) | 15.0(2.9) |  |  | 77.13 | 68.51 | 50.04 | 2.34 | LC50 (95% CL) ([1]; 4th stage nymphs, 24 hr): 3.370 (2.441-6.922) μL/vial; contact toxicity against S. invicta (in words) [4]: comparable results; also recorded: potent contact toxicities; decrease of mean mortality compared with MB ([6]; dosage 1.43 μg/ml, 24 h): 42 times
10 | CCCOC(=O)c1ccccc1 [nPrB, n-propyl benzoate] |  | 2.591 (2.086-3.839) μL/vial | 0.159 (0.135-0.199) mg/cm^2 | good insecticidal toxicity | 3.0(0.6) | 1.7(0.3) | 4.0(0.6) |  |  | 109.89 | 109.26 |  | 79.4 | increase of mean mortality compared with MB ([4]; dose 77.9 μg/ant, 24 h): 6 times; mean mortality ([4]; dose 77.9 μg/ant, 24 h): 45.5%
